Tested on: NCI-H196 complex spheroid viability
Assay: Anticancer human tumor NCI-H196 cell line growth inhibition [LSD1];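 also: spheroids exposed to agents for 7 days before readout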;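 as to viability, T/C: 100% = DMSO vehicle control viability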
Conditions: for IC50: curve of first compound; for viability, T/C: stronger effect = lower value
How it was run: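 Multicellular complex spheroids of tumor cells with human endothelial cells (HUVEC) and mesenchymal stem cells; the LSD1 inhibitor iadademstat was combined with standard-of-care or investigational agents. Top concentration at or near clinical Cmax, half-log dilutions; final DMSO ≤0.25%.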

[1] = second compound 0.1 µM, first compound 0.00949 µM
[2] = second compound 0.1 µM, first compound 0.03 µM
[3] = second compound 0.1 µM, first compound 0.0949 µM
[4] = second compound 0.1 µM, first compound 0.3 µM
[5] = second compound 0.316 µM, first compound 0.00949 µM
[6] = second compound 0.316 µM, first compound 0.03 µM
[7] = second compound 0.316 µM, first compound 0.0949 µM
[8] = second compound 0.316 µM, first compound 0.3 µM
[9] = second compound 1 µM, first compound 0.00949 µM
[10] = second compound 1 µM, first compound 0.03 µM
[11] = second compound 1 µM, first compound 0.0949 µM
[12] = second compound 1 µM, first compound 0.3 µM
[13] = second compound 3.16 µM, first compound 0.00949 µM
[14] = second compound 3.16 µM, first compound 0.03 µM
[15] = second compound 3.16 µM, first compound 0.0949 µM
[16] = second compound 3.16 µM, first compound 0.3 µM
[17] = second compound 10 µM, first compound 0.00949 µM
[18] = second compound 10 µM, first compound 0.03 µM
[19] = second compound 10 µM, first compound 0.0949 µM
[20] = second compound 10 µM, first compound 0.3 µM

CCN(c1cc(-c2ccc(CN3CCOCC3)cc2)cc(C(=O)NCc2c(C)cc(C)[nH]c2=O)c1C)C1CCOCC1 + NC1CCC(NC2CC2c2ccccc2)CC1
IC50 (second compound 0.1 µM): > 3000 nM | IC50 (second compound 0.316 µM): > 3000 nM | IC50 (second compound 1 µM): > 3000 nM | IC50 (second compound 3.16 µM): > 3000 nM | IC50 (second compound 10 µM): > 3000 nM | viability, T/C [1]: 100% | viability, T/C [2]: 95.6% | viability, T/C [3]: 93.1% | viability, T/C [4]: 103% | viability, T/C (second compound 0.1 µM, first compound 0.949 µM): 96.4% | viability, T/C (second compound 0.1 µM, first compound 3 µM): 101% | viability, T/C [5]: 99.5% | viability, T/C [6]: 93.8% | viability, T/C [7]: 101% | viability, T/C [8]: 100% | viability, T/C (second compound 0.316 µM, first compound 0.949 µM): 104% | viability, T/C (second compound 0.316 µM, first compound 3 µM): 110% | viability, T/C [9]: 92.5% | viability, T/C [10]: 93% | viability, T/C [11]: 98.7% | viability, T/C [12]: 95.2% | viability, T/C (second compound 1 µM, first compound 0.949 µM): 99.6% | viability, T/C (second compound 1 µM, first compound 3 µM): 103% | viability, T/C [13]: 87.8% | viability, T/C [14]: 91.4% | viability, T/C [15]: 95.3% | viability, T/C [16]: 95.6% | viability, T/C (second compound 3.16 µM, first compound 0.949 µM): 91.6% | viability, T/C (second compound 3.16 µM, first compound 3 µM): 99.9% | viability, T/C [17]: 104% | viability, T/C [18]: 93.3% | viability, T/C [19]: 94.6% | viability, T/C [20]: 105% | viability, T/C (second compound 10 µM, first compound 0.949 µM): 86.7% | viability, T/C (second compound 10 µM, first compound 3 µM): 101%

Nc1ncn(C2CC(O)C(CO)S2)c(=O)n1 (stereo not given) + NC1CCC(NC2CC2c2ccccc2)CC1
IC50 (second compound 0.1 µM): > 300 nM | IC50 (second compound 0.316 µM): > 300 nM | IC50 (second compound 1 µM): > 300 nM | IC50 (second compound 3.16 µM): > 300 nM | IC50 (second compound 10 µM): > 300 nM | viability, T/C (second compound 0.1 µM, first compound 0.000949 µM): 112% | viability, T/C (second compound 0.1 µM, first compound 0.003 µM): 104% | viability, T/C [1]: 121% | viability, T/C [2]: 118% | viability, T/C [3]: 122% | viability, T/C [4]: 118% | viability, T/C (second compound 0.316 µM, first compound 0.000949 µM): 103% | viability, T/C (second compound 0.316 µM, first compound 0.003 µM): 102% | viability, T/C [5]: 108% | viability, T/C [6]: 114% | viability, T/C [7]: 112% | viability, T/C [8]: 127% | viability, T/C (second compound 1 µM, first compound 0.000949 µM): 93.7% | viability, T/C (second compound 1 µM, first compound 0.003 µM): 105% | viability, T/C [9]: 113% | viability, T/C [10]: 109% | viability, T/C [11]: 109% | viability, T/C [12]: 110% | viability, T/C (second compound 3.16 µM, first compound 0.000949 µM): 96.4% | viability, T/C (second compound 3.16 µM, first compound 0.003 µM): 106% | viability, T/C [13]: 105% | viability, T/C [14]: 124% | viability, T/C [15]: 107% | viability, T/C [16]: 108% | viability, T/C (second compound 10 µM, first compound 0.000949 µM): 108% | viability, T/C (second compound 10 µM, first compound 0.003 µM): 105% | viability, T/C [17]: 113% | viability, T/C [18]: 118% | viability, T/C [19]: 111% | viability, T/C [20]: 106%

O=C(C=Cn1cnc(-c2cc(C(F)(F)F)cc(C(F)(F)F)c2)n1)NNc1cnccn1 + NC1CCC(NC2CC2c2ccccc2)CC1
IC50 (second compound 0.1 µM): < 3.16 nM | IC50 (second compound 0.316 µM): < 3.16 nM | IC50 (second compound 1 µM): < 3.16 nM | IC50 (second compound 3.16 µM): < 3.16 nM | IC50 (second compound 10 µM): < 3.16 nM | viability, T/C (second compound 0.1 µM, first compound 0.00316 µM): 32.9% | viability, T/C (second compound 0.1 µM, first compound 0.01 µM): 27.2% | viability, T/C (second compound 0.1 µM, first compound 0.0316 µM): 22.3% | viability, T/C (second compound 0.1 µM, first compound 0.1 µM): 15.1% | viability, T/C (second compound 0.1 µM, first compound 0.316 µM): 14.4% | viability, T/C (second compound 0.1 µM, first compound 1 µM): 9.29% | viability, T/C (second compound 0.316 µM, first compound 0.00316 µM): 31.6% | viability, T/C (second compound 0.316 µM, first compound 0.01 µM): 25.9% | viability, T/C (second compound 0.316 µM, first compound 0.0316 µM): 19.7% | viability, T/C (second compound 0.316 µM, first compound 0.1 µM): 14.1% | viability, T/C (second compound 0.316 µM, first compound 0.316 µM): 14.5% | viability, T/C (second compound 0.316 µM, first compound 1 µM): 10.1% | viability, T/C (second compound 1 µM, first compound 0.00316 µM): 38% | viability, T/C (second compound 1 µM, first compound 0.01 µM): 25.1% | viability, T/C (second compound 1 µM, first compound 0.0316 µM): 22.3% | viability, T/C (second compound 1 µM, first compound 0.1 µM): 17.1% | viability, T/C (second compound 1 µM, first compound 0.316 µM): 15.7% | viability, T/C (second compound 1 µM, first compound 1 µM): 10.4% | viability, T/C (second compound 3.16 µM, first compound 0.00316 µM): 30.6% | viability, T/C (second compound 3.16 µM, first compound 0.01 µM): 29.2% | viability, T/C (second compound 3.16 µM, first compound 0.0316 µM): 21.1% | viability, T/C (second compound 3.16 µM, first compound 0.1 µM): 17.1% | viability, T/C (second compound 3.16 µM, first compound 0.316 µM): 13.9% | viability, T/C (second compound 3.16 µM, first compound 1 µM): 12.9% | viability, T/C (second compound 10 µM, first compound 0.00316 µM): 38.2% | viability, T/C (second compound 10 µM, first compound 0.01 µM): 25.6% | viability, T/C (second compound 10 µM, first compound 0.0316 µM): 16% | viability, T/C (second compound 10 µM, first compound 0.1 µM): 19.1% | viability, T/C (second compound 10 µM, first compound 0.316 µM): 14.5% | viability, T/C (second compound 10 µM, first compound 1 µM): 11.9%

Source: PubChem BioAssay AID1918958 (Molecular Pharmacology Branch, DTP, NCI, 2023)
